Seven molecules from patent US5753671A, “Imidazopyridine derivatives as dual histamine (H1) and platelet activating factor (PAF) antagonists” (British Biotech Pharmaceuticals Limited, priority 1994, dated 1998) can be followed below.

By IC50 is commonly meant the point on the concentration scale where inhibition reaches its midpoint. Lower therefore signals greater potency in that assay. In general, % Inhibition refers to how much of the control response was suppressed. Read a high % Inhibition as a strong effect. Usually ED50 stands for the dose at which the effect has come halfway, by size or by number of responders.

In experiment [1] the test system is PAF-Induced Platelet Aggregation. Put plainly: Inhibition of PAF-Induced Platelet Aggregation. Type of experiment: cell-based, rabbit (male New Zealand White). Conditions: Oryctolagus cuniculus; rabbit platelet-rich plasma, PAF 100 ng.ml^-1 (50 μl aliquot), 37° C. The protocol:
Inhibition of PAF-Induced Platelet Aggregation
Male New Zealand White rabbits (3.0-3.5 kg) were anaesthetised by intravenous administration of sodium pentobarbitone, […], via a marginal ear vein. The trachea was exposed and connected to a respiratory pump (Havard UK) to provide artificial ventilation. A carotid artery was exposed and cannulated and the animal was exsanguinated. Whole blood was collected in a syringe containing tri-sodium citrate (3.8% w/v) to a ratio of 1 part citrate:9 parts blood.
Collected blood was centrifuged at 180×g for 15 minutes at room temperature (21° C.) to prepare platelet-rich plasma (PRP). The remaining blood was then centrifuged at 1800×g for 10 minutes at room temperature to obtain platelet poor plasma (PPP).
Platelet count of the PRP was measured using a Technicon H1 blood cell differential analyser (Bayer Diagnostics UK) and adjusted with PPP to obtain a final platelet count of 500,000 platelets per μl of plasma, this being the normal physiological platelet count for rabbits. Corrected PRP was left to equilibrate at room temperature for 30 minutes before use.
Aggregation studies were carried out using 4-channel aggregometer (PAP-4C, BioData USA) as follows: 400 μl aliquots of PRP were placed in siliconised cuvettes and incubated to 37° C. for 1 to 2 minutes in the heating block of the aggregometer. Baseline (100% aggregation) was set up using PPP (500 μl in a siliconised cuvette). The PRP was placed into a measuring well of the aggregometer, and a stir bar was added. The sample was stirred at 1000 rpm. The machine was activated to set the 0% aggregation level. Test compound or vehicle (50 μl) was added to the PRP, where any effects on the baseline was noted. PAF (100 ng.ml^-1 as 50 μl aliqout) was added to the PRP 3 minutes after test compound or vehicle. Aggregation was measured for a further 4 minutes after PAF addition and the maximum aggregation over the 4 minutes was recorded.
The investigation of different concentrations of test compound was performed in triplicate. Data were expressed as […] of the sample and test compound data were compared to vehicle data to obtain % inhibition of the PAF-induced aggregation from which IC50 values could be determined.
PAF was made up in sterile saline (NaCl 0.9% w/v) containing BSA (0.25% w/v) from an initial stock solution (10 mg.ml^-1 in EtOH). Test compounds were made up as 1×10^-3 M stock solutions in sterile saline containing molar equivalents of 1N HCI (v/v) or in DMSO.

The target of experiment [2] is T1, Histamine-1 Receptors on Hela-S3 Cells (Homo sapiens, UniProt P35367).
T1 construct: histamine-1 receptors on Hela-S3 cells (American Type Culture Collection); endogenous in cells; host or cells: HeLa S3 cells (American Type Culture Collection), intact cell suspension
Put plainly: Inhibition of [^3 H]-Pyrilamine Binding to Histamine-1 Receptors on Hela-S3 Cells. The conditions noted are these: 0.5 h, 1 μM test compound, 37° C., 30 minutes, read-out: % Specific Binding. How it is done:
Inhibition of [^3 H]-Pyrilamine Binding to Histamine-1 Receptors on Hela-S3 Cells
The inhibition of [^3 H]-pyrilamine binding to histamine-1 receptors on Hela-S3 cells (American Type Culture Collection) was determined by isotopic labelling and filtration techniques. A suspension of the cells in buffer (25 ml, 0.5% Bovine Serum Albumin, 0.1% sodium azide, phosphate buffered saline (PBS)) was centrifuged at 1000 rpm for 5 minutes in a JOUAN CR 422 centrifuge, collected, resuspended in buffer (25 ml) and spun again. The cells were counted using a haemocytometer and resuspended in buffer to provide a final concentration of 4.5×10^6 cells ml^-1. A portion of the Hela S3 cell suspension (1 ml) was added to each assay tube containing 25 μl of vehicle (50% DMSO/buffer) or 25 μl of solution containing test compound (dissolved in DMSO and diluted with sufficient PBS to give a final test concentration of 1 μM) and 25 μl 0f [^3 H]-pyrilamine (supplied by Amersham International and diluted with PBS to 3 nM). The tubes were mixed and incubated at 37° C. for 30 minutes. The tubes were then spun at 4° C. at 2000 rpm for 2 minutes. The supematant was removed and the cells resuspended in buffer (repeated x2). The cells were suspended in 300 μl of a 2:1 solution of 1M sodium hydroxide and 1% sodium dodecyl sulphate. The tubes were left overnight before the contents were tranferred to a scintillation vial, treated with 10 ml, OPTIPHASE MP scintillation fluid (OPTIPHASE MP is a trade mark) and the radioactivity counted in a scintillation counter. Non-displcable binding (NDB) was determined using Astemizole (5×10^-5 M) in place of test compounds. Defining the counts for total binding from the vehicle control sample as "TB" and the counts for total binding with antagonist as "TBA" the percentage specific binding (%SB) can be determined from the following equation. [formula] Results

Experiment [3] relates to PAF Induced Bronchoconstriction. Put plainly: PAF Induced Bronchoconstriction in the Anaesthetised Guinea Pig. The conditions noted are these: 10 mgkg^-1, p.o., PAF 100 ngkg^-1 i.v. bolus one hour after oral dosing. In kind it is in vivo, guinea pig (male Dunkin-Hartley). An excerpt:
PAF Induced Bronchoconstriction in the Anaesthetised Guinea Pig
(§1) Following oral administration of test compound or vehicle, male Dunkin-Hartley guinea pigs (350-400 g) were anaesthetised by intraperitoneal injection of 60 mgkg^-1 sodium pentobarbitone (Sagatal, May & Baker UK). Through a midline incision of the neck, the trachea was cannulated and connected to a small animal respirator (Harvard, UK). Animals were artificially ventilated at a rate of 30 breaths per minute with a tidal volume of 8-10 ml to give a resting tracheal inflation pressure of 15mmHg as measured by a physiological pressure transducer (type P23XL, Spectramed USA) connected to a side arm of the respiratory circuit.
A jugular vein was cannulated for the administration of a bolus dose of propranolol and for the later administration of bolus PAF. A carotid artery cannulated for the measurement of arterial blood pressure via a physiological pressure transducer (type P23XL, Spectramed USA). Blood pressure and tracheal inflation pressure were recorded on a thermal array chart recorder (type TA4000, Gould Electronics UK).
Propranolol (1 mgkg^-1 i.v. & 3 mgkg^-1 s.c. Sigma Chemical Co. UK) was administered 10 minutes before PAF in order to prevent the bronchodilatory activity of catecholamines which may be released in response to PAF administration. PAF (100 ngkg^-1 i.v. bolus) was administered at the one hour time point following oral administration of the test compound or vehicle.
Changes in tracheal inflation pressure and blood pressure of drug treated animals were compared with changes from vehicle treated animals and percentage inhibition determined. One dose of test compound was investigated per animal.

In experiment [4] the test system is Histamine Induced Bronchoconstriction. The experiment is described as follows: Histamine Induced Bronchoconstriction in the Anaesthetised Guinea Pig. Conditions: Cavia porcellus, 1 h, p.o., histamine infusion 10 μgkg^-1 min^-1 started one hour after oral dosing. In kind it is in vivo, guinea pig (male Dunkin-Hartley).
Excerpt: Histamine Induced Bronchoconstriction in the Anaesthetised Guinea Pig
as §1, with “vehicle by oral gavage,” for “vehicle,”, “15 mmHg” for “15mmHg”
A jugular vein was cannulated for the administration of propranolol and for the infusion of histamine. A carotid artery was cannulated for the measurement of arterial blood pressure via a physiological pressure transducer (type P23XL, Spectramed USA). Blood pressure and tracheal inflation pressure were recorded on a thermal array chart recorder (type TA4000, Gould Electronics UK).
Following a suitable equilibration period, propranolol (1 mgkg^-1 i.v. & 3 mgkg ^-1 s.c. Sigma Chemical Co. UK) was administered to inhibit any resulting catecholamine release following histamine administration.
Histamine infusion (10 μgkg^-1 min^-1 at a rate of 10 mlhr^-1 using a perfusion pump type Perfuser securer FT, B. Braun Germany) was started at the one hour time point following oral administration of the test compound or vehicle. Changes in tracheal inflation pressure and blood pressure of drug treated animals were compared with changes from vehicle treated animals and ED50 values determined. One dose of test compound was investigated per animal.

T1 sequence (P35367 whole entry): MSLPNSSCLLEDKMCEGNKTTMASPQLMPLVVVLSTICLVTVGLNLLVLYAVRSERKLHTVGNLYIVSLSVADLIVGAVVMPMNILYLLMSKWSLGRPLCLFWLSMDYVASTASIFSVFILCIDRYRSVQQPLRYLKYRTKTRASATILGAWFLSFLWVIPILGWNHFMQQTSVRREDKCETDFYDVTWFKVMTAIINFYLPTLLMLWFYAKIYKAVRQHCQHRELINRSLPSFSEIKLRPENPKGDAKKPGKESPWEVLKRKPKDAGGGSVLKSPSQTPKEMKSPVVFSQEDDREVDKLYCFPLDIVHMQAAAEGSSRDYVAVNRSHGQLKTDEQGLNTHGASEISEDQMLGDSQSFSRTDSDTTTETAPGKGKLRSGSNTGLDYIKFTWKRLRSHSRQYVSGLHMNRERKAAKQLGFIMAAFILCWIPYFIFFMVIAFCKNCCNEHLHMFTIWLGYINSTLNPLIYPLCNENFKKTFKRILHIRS

On to `Cc1ccc(/C(=C\CN2CCCC2)c2cccc(/C=C/COC(=O)[C@H](CC(C)C)N(C)S(=O)(=O)c3ccc(Cn4c(C)nc5cnccc54)cc3)n2)cc1` [Example 17, 4-Methyl-2-{methyl-[4-(2-methyl-imidazo[4,5-c]pyridin-1-ylmethyl)-phenylsulphonyl]-amino}-pentanoic acid-(E)-3-(6-[3-pyrrolidino-1-{4-tolyl}-prop-1E-enyl]-pyridin-2-yl)-prop-2-en-1-yl ester], for which the IC50 in experiment [1] worked out at 115 nM. For the same molecule, in experiment [2], the activity at 1 µM came out at 47%.

For `Cc1nc2cnccc2n1Cc1ccc(S(=O)(=O)N(C)[C@@H](CC(C)C)C(=O)N2CCC(=C3c4ccc(Cl)cc4CCc4cccnc43)CC2)cc1` [Example 6, 4-(8-Chloro-5,6-dihydro-11H-benzo[5,6]cyclohepta[1.2-b]-pyridin-11-ylidene)-1-(N-methyl-N-4-{1H-2-methylimidazo[4,5-c]pyridinylmethyl}-phenylsulphonyl-L-leucyl)-piperidine amide], the “% Inhibition” value in experiment [3] is listed as 40%. In experiment [4], this molecule displayed a median effective dose (ED50) of 6.5 mg/kg. Also, the midpoint of inhibition in experiment [1], the IC50, lay at 252 nM. The activity at 1 µM in experiment [2] amounted to 79%.

In the case of `Cc1ccc(/C(=C\CN2CCCC2)c2cccc(/C=C/C(=O)OC[C@H](CC(C)C)N(C)S(=O)(=O)c3ccc(Cn4c(C)nc5cnccc54)cc3)n2)cc1` [Example 8, (E)-3-(6-[Pyrrolidino-1-{4-tolyl}prop-1E-enyl]-2-pyridyl)acrylic acid, N-methyl-N-4-(1H-2-methylimidazo[4,5-c]pyridinylmethyl)-phenylsulphonyl-L-leucyl ester], the “% Inhibition” value in experiment [3] came out at 46%. Further, it took a dose of 0.16 mg/kg to reach the 50% effect level in experiment [4] (ED50).

For `CCOC[C@H](CC(C)C)N(C/C=C/c1cccc(/C(=C/CN2CCCC2)c2ccc(C)cc2)n1)S(=O)(=O)c1ccc(Cn2c(C)nc3cnccc32)cc1` [Example 25, N-(S)-(1-Ethoxymethyl-3-methylbutyl)-N-{(E)-3-(6-[3-pyrrolidino-1-{4-tolyl}-prop-1E-enyl]-pyridin-2-yl)-prop-2-en-1-yl}-4-(1H-2-methylimidazo[4,5-c]pyridin-1-ylmethyl)-phenylsulphonamide], the “% Inhibition” value in experiment [3] was determined as 50%. For the same molecule, the 50% effect level in experiment [4] (ED50) was put at a dose of 0.5 mg/kg. The molecule also came in with an IC50 in experiment [1] of 420 nM. In experiment [2], the activity at 1 µM worked out at 55%.

`CCOC[C@H](CC(C)C)N(CCCN(C)CCC(c1ccc(Cl)cc1)c1ccccn1)S(=O)(=O)c1ccc(Cn2c(C)nc3cnccc32)cc1` (stereo partly drawn) [Example 23, N-(3-{[3-(R,S)-(4-Chlorophenyl)-3-pyridin-2-yl-propyl]-methylamino}propyl)-N-(S)-(1-ethoxymethyl-3-methylbutyl)-4-(1H-2-methylimidazo[4,5-c]pyridin-1-ylmethyl)-phenylsulphonamide] gave a half-maximal inhibitory concentration (IC50) in experiment [1] of 300 nM. For the same molecule, the activity at 1 µM in experiment [2] was 33%.

In experiment [1], `Cc1nc2cnccc2n1Cc1ccc(S(=O)(=O)N(C)[C@@H](CC(C)C)C(=O)OC(CCCN2CCC(C(O)(c3ccccc3)c3ccccc3)CC2)c2ccc(C(C)(C)C)cc2)cc1` (stereo partly drawn) [Example 2, N-Methyl-N-4-(1H-2-methylimidazo[4,5-c]pyridinylmethyl)-phenylsulphonyl-L-leucine-2-(4-[1,1-dimethylethyl]phenyl)-4-(hydroxydiphenylmethyl)-1-piperidinebutyl ester] returned an IC50 of 2100 nM. Moreover, in experiment [2], the activity at 1 µM came out at 57%.

`Cc1nc2cnccc2n1Cc1ccc(S(=O)(=O)N(C)[C@@H](CC(C)C)C(=O)OCCCN2CCN(C(c3ccccc3)c3ccccc3)CC2)cc1` [Example 4, N-Methyl-N-4-(1H-2-methylimidazo[4,5-c]pyridinylmethyl)-phenylsulphonyl-L-leucine-3-(4-benzhydryl-piperazin-1-yl)-propyl ester] had a concentration for half-maximal inhibition (IC50) in experiment [1] of 190 nM. Also, in experiment [2], the activity at 1 µM was 34%.
